Source: US20220264878A1, “HERBICIDAL COMPOSITION CONTAINING R-TYPE PYRIDYLOXY CARBOXYLIC ACID DERIVATIVE AND USE THEREOF” (Qingdao Kingagroot Chemical Compound Co., Ltd., priority 2019, published 2022)

Legend:
Type in all cases: in vivo
Conyza Canadensis = test: Post-emergence foliage spray on Conyza Canadensis with a height of 10 cm, fresh weight inhibition (Tables 207-216; 24 days); settings: 24 days after treatment
Description: (§1) The above weeds were cultivated by a pot culture method. […] Full and uniform weed seeds were selected, soaked in warm water at 25° C. for 6 hours, and germinated in a 28° C. biochemical incubator (darkness). The weed seeds that had just germinatedwere evenly placed on the surface of the soil and then covered with 0.5-1 cm soil according to the sizes of seeds.
(§2) The technical materials were all dissolved in acetone, and diluted with an aqueous solution containing 0.1% emulsifier Tween-80. The dilution is performed as required.
(§3) A ratio of the active ingredient A to the active ingredient B and amounts thereof in each group depends on the characteristics and toxicity of the two agents, as well as the main application purpose of a corresponding formulation. Based on the pre-tests in this study, the dosage of the active ingredient A and B applied alone and in combination were shown in the tables. Water containing the solvent and emulsifier same with the above groups but free of the agents was used as a blank control.
In the stage of weeds with 6˜8 leaves, the weeds were thinned out to maintain 3 weeds per pot and 30 weeds for each treatment, then continued to be cultured to Conyza Canadensis with a height of 10 cm, and treated.
(§4) The well-cultured weeds were evenly placed on a platform with an area of 0.5 m^2, and a solution of agents was sprayed on the stems and leaves thereof by the 3WP-2000-type walking spray tower at a dosage of 450 kg/ha and at a spray pressure of 0.3 MPa. After all the solution was sprayed, the valve was closed. After 30 seconds, the door of the spray tower was opened, and the nutritional bowl was taken out. Then the valve was opened, and the spray tube was cleaned by spraying 50 ml of water.
(§5) A pot-culture method was employed. For the cultivation of weeds, please refer to the Section 1.1), and “Pesticide guidelines for laboratory bioactivity tests—herbicides”. As to a method for applying agents, please refer to the section 2.3.2), that is, a foliage treatment was employed. After the treatment, the weeds were routinely cultured in a greenhouse.
(§6) A method for investigating absolute number was employed, wherein whole seedlings of survival weeds were cut off with a blade along the soil surface, and the fresh weight of the weeds was weighed with an analytical balance. For dead weeds, the fresh weight thereof was zero.
Wherein, in the formula, X represented the fresh weight inhibition rate of the active ingredient A in a dosage of P, and Y represented the fresh weight inhibition rate of the active ingredient B in a dosage of Q.

Alopecurus japonicus = test: Post-emergence foliage spray, pot culture, fresh weight inhibition (Tables 1-48, 51-98, 101-148; 24 days)
Source text: (§7) Table 1-48, 51-98, 101-148: Echinochloa crusgalli var. zelayensis, Eclipta prostrate, Galium aparine L., Alopecurus aequalis, Alopecurus japonicus, Lindernia procumbens, Veronica persica^1, Malachium aquaticum, Beckmannia syzigachne, Stellaria media were collected in Huai'an of Jiangsu Province; Commelina communis, Sonchus arvensis, Setaria glauca, Chloris virgata, Setaria faberi, Sonchus oleraceus L., Echinochloa oryzoides, Cirsium setosum, Xanthium strumarium were collected in Qiqiha'er of Heilongjiang Province; Sinapis arvensis, Veronica persica^2 were collected in Zhumadian of Henan Province; Ludwigia prostrate, Ammannia arenaria were collected in Zhuji of Zhejiang Province; Amaranthus retrojlexus, Descurainia sophia, Digitaria sanguinalis, Setaria viridis, Conyza Canadensis, Capsella bursa-pastoris, Eleusine indica, Ipomoea purpurea, Abutilon theophrasti, Chenopodium album, Acalypha australis, Solanum nigrum were collected in Qingdao of Shandong Province; Echinochloa caudate were collected in Pingluo of Ningxia Province.
as §1
(§8) The culture was carried out in a controllable sunlight greenhouse at 20 to 30° C., in natural light, and relative humidity of 57% to 72%.
as §2, §3
(§9) Table 1-48, 51-98, 101-148, 151-206: […] per treatment, that is, a total of 60 weeds were treated in one treatment.
(§10) Table 1-48, 51-98, 101-148: The agents were used for only once in the experiment. In the stage of weeds with 3˜4 leaves, the weeds were thinned out to maintain 15 weeds per pot and 45 weeds for each treatment, then continued to be cultured to 5˜6 leaves stage of grassy weeds, 6˜7 leaves stage of broadleaf weeds, and treated.
as §4, §5, §6
(§11) Table 1-48, 51-98, 101-148, 207-216: The investigation was performed after 24 days of the treatment for only once.

Beckmannia syzigachne = test: as above
Source text: as §7, §1, §8, §2, §3, §9, §10, §4, §5, §6, §11

Cc1cc(Cl)ccc1OCC(=O)O [MCPA]
Control effect (%) of B applied alone in corresponding dose (Conyza Canadensis; B alone 75 g a.i./ha): 18.8%

Nc1cc(Cl)nc(C(=O)O)c1Cl [aminopyralid]
Control effect (%) of B applied alone in corresponding dose (Conyza Canadensis; B alone 15 g a.i./ha): 19.0%
Control effect (%) of B applied alone in corresponding dose (Conyza Canadensis; B alone 30 g a.i./ha): 40.7%

Cc1ccc(NC(=O)N(C)C)cc1Cl [chlorotoluron]
Control effect (%) of B applied alone in corresponding dose (Alopecurus japonicus; chlorotoluron 75 g a.i./ha): 2.9%
Control effect (%) of B applied alone in corresponding dose (Alopecurus japonicus; chlorotoluron 150 g a.i./ha): 13.1%
Control effect (%) of B applied alone in corresponding dose (Alopecurus japonicus; chlorotoluron 300 g a.i./ha): 39.8%
Control effect (%) of B applied alone in corresponding dose (Alopecurus japonicus; chlorotoluron 600 g a.i./ha): 71.9%
Control effect (%) of B applied alone in corresponding dose (Beckmannia syzigachne; B 75 g a.i./ha): 5.5%
Control effect (%) of B applied alone in corresponding dose (Beckmannia syzigachne; B 150 g a.i./ha): 16.8%
Control effect (%) of B applied alone in corresponding dose (Beckmannia syzigachne; B 300 g a.i./ha): 41.1%
Control effect (%) of B applied alone in corresponding dose (Beckmannia syzigachne; B 600 g a.i./ha): 72.1%

C#CCOC(=O)[C@@H](C)Oc1ccc(Oc2ncc(Cl)cc2F)cc1 [clodinafop-propargyl]
Control effect (%) of B applied alone in corresponding dose (Alopecurus japonicus; clodinafop-propargyl 3.75 g a.i./ha): 3.0%
Control effect (%) of B applied alone in corresponding dose (Alopecurus japonicus; clodinafop-propargyl 7.5 g a.i./ha): 10.6%
Control effect (%) of B applied alone in corresponding dose (Alopecurus japonicus; clodinafop-propargyl 15 g a.i./ha): 57.8%
Control effect (%) of B applied alone in corresponding dose (Alopecurus japonicus; clodinafop-propargyl 30 g a.i./ha): 79.9%
Control effect (%) of B applied alone in corresponding dose (Beckmannia syzigachne; B 3.75 g a.i./ha): 10.3%
Control effect (%) of B applied alone in corresponding dose (Beckmannia syzigachne; B 7.5 g a.i./ha): 20.1%
Control effect (%) of B applied alone in corresponding dose (Beckmannia syzigachne; B 15 g a.i./ha): 59.6%
Control effect (%) of B applied alone in corresponding dose (Beckmannia syzigachne; B 30 g a.i./ha): 81.2%

O=C(O)c1nc(Cl)ccc1Cl [clopyralid]
Control effect (%) of B applied alone in corresponding dose (Conyza Canadensis; B alone 15 g a.i./ha): 6.1%
Control effect (%) of B applied alone in corresponding dose (Conyza Canadensis; B alone 30 g a.i./ha): 29.8%
Control effect (%) of B applied alone in corresponding dose (Conyza Canadensis; B alone 60 g a.i./ha): 53.5%
Control effect (%) of B applied alone in corresponding dose (Conyza Canadensis; B alone 120 g a.i./ha): 82.8%

Cn1[nH]c(C2CC2)c(C(=O)c2ccc(C(F)(F)F)c(N3CCCCC3=O)c2Cl)c1=O [cypyrafluone]
Control effect (%) of B applied alone in corresponding dose (Alopecurus japonicus; cypyrafluone 18.75 g a.i./ha): 4.0%
Control effect (%) of B applied alone in corresponding dose (Alopecurus japonicus; cypyrafluone 37.5 g a.i./ha): 24.9%
Control effect (%) of B applied alone in corresponding dose (Alopecurus japonicus; cypyrafluone 75 g a.i./ha): 54.8%
Control effect (%) of B applied alone in corresponding dose (Alopecurus japonicus; cypyrafluone 150 g a.i./ha): 81.3%
Control effect (%) of B applied alone in corresponding dose (Beckmannia syzigachne; B 18.75 g a.i./ha): 9.0%
Control effect (%) of B applied alone in corresponding dose (Beckmannia syzigachne; B 37.5 g a.i./ha): 14.2%
Control effect (%) of B applied alone in corresponding dose (Beckmannia syzigachne; B 75 g a.i./ha): 56.3%
Control effect (%) of B applied alone in corresponding dose (Beckmannia syzigachne; B 150 g a.i./ha): 81.8%

COc1c(Cl)ccc(Cl)c1C(=O)O [dicamba]
Control effect (%) of B applied alone in corresponding dose (Conyza Canadensis; B alone 150 g a.i./ha): 58.7%

COc1c(Cl)ccc(-c2nc(C(=O)OCc3ccccc3)c(Cl)c(N)c2F)c1F [florpyrauxifen benzyl]
Control effect (%) of B applied alone in corresponding dose (Conyza Canadensis; B alone 1.875 g a.i./ha): 3.5%
Control effect (%) of B applied alone in corresponding dose (Conyza Canadensis; B alone 7.5 g a.i./ha): 47.4%

Nc1c(Cl)c(F)nc(OCC(=O)O)c1Cl [fluroxypyr]
Control effect (%) of B applied alone in corresponding dose (Conyza Canadensis; B alone 37.5 g a.i./ha): 5.8%

COC(=O)c1nc(-c2ccc(Cl)c(OC)c2F)cc(N)c1Cl [halauxifen-methyl]
Control effect (%) of B applied alone in corresponding dose (Conyza Canadensis; B alone 3.75 g a.i./ha): 20.5%
Control effect (%) of B applied alone in corresponding dose (Conyza Canadensis; B alone 15 g a.i./ha): 81.5%

CC(C)c1ccc(NC(=O)N(C)C)cc1 [isoproturon]
Control effect (%) of B applied alone in corresponding dose (Alopecurus japonicus; isoproturon 75 g a.i./ha): 2.5%
Control effect (%) of B applied alone in corresponding dose (Alopecurus japonicus; isoproturon 150 g a.i./ha): 11.4%
Control effect (%) of B applied alone in corresponding dose (Alopecurus japonicus; isoproturon 300 g a.i./ha): 56.5%
Control effect (%) of B applied alone in corresponding dose (Alopecurus japonicus; isoproturon 600 g a.i./ha): 75.9%
Control effect (%) of B applied alone in corresponding dose (Beckmannia syzigachne; B 75 g a.i./ha): 7.0%
Control effect (%) of B applied alone in corresponding dose (Beckmannia syzigachne; B 150 g a.i./ha): 15.9%
Control effect (%) of B applied alone in corresponding dose (Beckmannia syzigachne; B 300 g a.i./ha): 57.6%
Control effect (%) of B applied alone in corresponding dose (Beckmannia syzigachne; B 600 g a.i./ha): 76.6%

Nc1c(Cl)c(Cl)nc(C(=O)O)c1Cl [picloram]
Control effect (%) of B applied alone in corresponding dose (Conyza Canadensis; B alone 7.5 g a.i./ha): 5.0%
Control effect (%) of B applied alone in corresponding dose (Conyza Canadensis; B alone 60 g a.i./ha): 69.4%

CCc1cc(C)cc(CC)c1-c1c(OC(=O)C(C)(C)C)n2n(c1=O)CCOCC2 [pinoxaden]
Control effect (%) of B applied alone in corresponding dose (Alopecurus japonicus; pinoxaden 3.75 g a.i./ha): 2.5%
Control effect (%) of B applied alone in corresponding dose (Alopecurus japonicus; pinoxaden 7.5 g a.i./ha): 12.1%
Control effect (%) of B applied alone in corresponding dose (Alopecurus japonicus; pinoxaden 15 g a.i./ha): 41.7%
Control effect (%) of B applied alone in corresponding dose (Alopecurus japonicus; pinoxaden 30 g a.i./ha): 71.8%
Control effect (%) of B applied alone in corresponding dose (Beckmannia syzigachne; B 3.75 g a.i./ha): 7.9%
Control effect (%) of B applied alone in corresponding dose (Beckmannia syzigachne; B 7.5 g a.i./ha): 18.0%
Control effect (%) of B applied alone in corresponding dose (Beckmannia syzigachne; B 15 g a.i./ha): 43.5%
Control effect (%) of B applied alone in corresponding dose (Beckmannia syzigachne; B 30 g a.i./ha): 72.6%

O=C(O)c1c(Cl)ccc2cc(Cl)cnc12 [quinclorac]
Control effect (%) of B applied alone in corresponding dose (Conyza Canadensis; B alone 30 g a.i./ha): 11.7%
Control effect (%) of B applied alone in corresponding dose (Conyza Canadensis; B alone 60 g a.i./ha): 28.8%
Control effect (%) of B applied alone in corresponding dose (Conyza Canadensis; B alone 120 g a.i./ha): 53.7%
Control effect (%) of B applied alone in corresponding dose (Conyza Canadensis; B alone 240 g a.i./ha): 76.2%

O=C(O)COc1nc(Cl)c(Cl)cc1Cl [triclopyr]
Control effect (%) of B applied alone in corresponding dose (Conyza Canadensis; B alone 300 g a.i./ha): 78.4%
